One assay concerns VM-M3 cells. Briefly: KDE in VM-M3 model of cancer anorexia cachexia syndrome (Experiment 4c). The format is in vivo, VM/Dk mice. The conditions noted are these: 30% KDE in diet. The text has this: Animals: Five breeding pairs of the VM/Dk strain of mice were used to establish and propagate a VM/Dk mouse colony in the University of South Florida (USF) Morsani College of Medicine Vivarium according to standard husbandry protocol. Male and female VM/Dk mice between 10-23 weeks of age were singly housed to accurately assess individual animal food intake. Bodyweight and food intake were tracked daily prior to and post-social isolation to ensure bodyweight and food intake normalized prior to cell inoculation (Table 1). Animals were distributed into one of four groups: Sham Male (SH-M), Sham Female (SH-F), Cancer Male (CA-M), and Cancer Female (CA-F). Each cancer animal was matched with a sham animal of equivalent sex, bodyweight, age, and food intake (FIGS. 8A-8B) to ensure appropriate cancer and sex-specific comparisons. To determine KDE-induced effects in CACS, VM/Dk animals were distributed into one of three groups: KDE+VM-M3, VM-M3, and Sham with equivalent sex, bodyweight, age and food intake at baseline (FIG. 13A). One premature death occurred in SH-F (Experiment 1a) and Sham (Experiment 4c) groups immediately post-inoculation. To determine KDE-induced effects post-LPS administration, VM/Dk animals were distributed into two groups (FIGS. 14A-14B): KDE+LPS and LPS of equivalent bodyweights. All procedures were approved by the USF Institutional Animal Care and Use Committee (USF IACUC; Protocol Number R1900 & R5829) and performed under strict adherence to the NIH Guide for the Care and Use of Laboratory Animals.
VM-M3 Cell and Lipopolysaccharide Implantation: For VM-M3 implantation in the model characterization experiments (FIG. 1-5; FIG. 8-12), ˜1×10^6 VM-M3 cells (T. Seyfried, Boston College) in 300 μL sterile PBS (CA-M and CA-F) or 300 μL sterile PBS-only (SH-M and SH-F) were injected subcutaneously into the left abdominal flank resulting in primary tumor formation at the injection site, and subsequently systemically metastasizes to most major organs, namely the liver, kidneys, spleen, lungs, and brain. […] This method of implantation further minimized variability in markers of tumor progression, and therefore provides a useful optional method technique in the VM-M3 model for efficient analysis of potential therapeutic agents. To determine KDE-induced effects on CACS, 1×10^6 VM-M3 cells in 300 μL sterile PBS (KDE+VM-M3 and VM-M3) or 300 μL sterile PBS-only (Sham) were administered intraperitoneally (FIG. 6; FIG. 13). For LPS administration in the septic atrophy model, LPS (Escherichia coli 055:B5; L2880; Sigma-Aldrich, St. Louis, MO) was diluted in sterile PBS and administered intraperitoneally at 10 mg/kg as pilot work indicated a maximal, yet non-fatal, ˜15% bodyweight reduction at 10 mg/kg dose.
Tumor Growth and Metastasis: Tumor growth was monitored weekly as a measure of bioluminescence using the Xenogen IVIS Spectrum system (Caliper LS, Hopkinton, MA). Data acquisition and analysis was performed using the Living Image@ software (Caliper LS). Approximately 15 minutes prior to in vivo imaging, VM/Dk mice received an intraperitoneal injection of D-Luciferin (50 mg/kg; 88293, Thermo Fisher Scientific; Waltham, MA). Bioluminescent signal was obtained using the IVIS Lumina cooled CCD camera system in both prone and supine positions. As only the cancer cells were transfected with the luciferase gene, bioluminescent signal (photons/sec) of the whole animal was measured and tracked over time as an indicator of tumor burden and metastatic spread. At EOL, primary tumor, spleen, liver, and adipose tissue were gathered and saturated with D-Luciferin (10 μL D-Luciferin+PBS/g tissue at 5 mg D-Luciferin/mL PBS dilution) for 5 mins and imaged to determine tumor burden. Ascites fluid was imaged 15 minutes after resuspension with D-Luciferin (20 μL D-Luciferin+PBS/mL ascites fluid at 5 mg D-Luciferin/mL PBS dilution) to assess presence of circulating tumor cells. […]

The nature of assay [1]: Blood glucose and ketones after single KDE gavage at various dosages (Experiment 5a). Conditions: vs timepoint 0. It counts as in vivo, VM/Dk mice. The method, then: Metabolic Biomarkers: Blood glucose and R β-hydroxybutyrate were measured using Precision Xtra™ Blood Glucose & Ketone Monitoring System (Abbott Laboratories, Abbott Park, IL). Blood lactate concentration was measured using Lactate Plus Lactate Meter (Nova Biomedical). IGF-1 and Insulin were relabeled for blinded analysis and subsequently analyzed using Luminex 100 system (Luminex, Austin, TX) with R&D Systems Mouse 1-Plex Luminex Assay (R&D Systems, Minneapolis, MN) and Milliplex Mouse Multiplex Kit (Millipore, St. Charles, MO), respectively, using manufacturer's protocol.
Ketone Diester Mitigates Bodyweight Loss and Comorbidities in Inflammation-Induced Atrophy: Reductions in anorexia, tumor burden, and skeletal muscle atrophy all present ideal outcomes in the clinical environment of CACS. It should be noted, however, that altered anorexia and tumor burden can confound interpretation of the direct effects of the KDE on skeletal muscle atrophy. […] Due to the rapid nature of LPS-induced atrophy, various dosages of KDE were gavaged to determine their ability to rapidly shift systemic metabolism. […] To determine KDE's effect on cancer-independent catabolism, a maximal non-fatal LPS dose (10 mg/kg) was administered, followed by a single 4 mL/kg water (LPS) or KDE (KDE+LPS) gavage. KDE attenuated bodyweight loss 47% within the first 24 hours post-LPS administration (FIG. 7B).

Setting [2] is: weekly, KDE+VM-M3 vs VM-M3 and Sham.

These results are taken from patent publication US12648924B2, “Prevention and treatment of effects of aging and age-associated disorders with ketone supplementation” (priority 2020, dated 2026).

On to `CC(=O)CC(=O)OCCC(C)OC(=O)CC(C)=O` (centres unmarked) [KDE, R/S 1,3-butanediol acetoacetate diester], for which, in the assay with VM-M3 cells (KDE+VM-M3 vs VM-M3), the blood lactate entry is “No difference” and the “food intake (anorexic phenotype)” value is “attenuation of the predicted anorexic phenotype”. For the same compound, the bodyweight result in the assay on VM-M3 cells (daily, KDE+VM-M3 vs VM-M3 and Sham) is “lower bodyweight”. In the assay with VM-M3 cells (week 3, KDE+VM-M3 group (VM-M3 alone 3.0 g, Sham 0 g)), this compound yielded an ascites fluid weight of 1.9 g. Also, in the assay with VM-M3 cells (week 3, KDE+VM-M3 vs VM-M3), the “ascites fluid (surrogate marker of metastatic spread)” value was “significantly reduced”, the “intraperitoneal adipose tissue weight (adipose tissue catabolism)” value is “unable to alter adipose tissue catabolism”, the “serum IGF-1” value is listed as “did not alter circulating anabolic hormone levels” and the serum insulin entry is on record as “did not alter circulating anabolic hormone levels”. Also, the “skeletal muscle atrophy (Gastrocnemius, Soleus, Quadricep, Tibialis Anterior, Hind Limb weights)” value in the assay with VM-M3 cells (week 3, KDE+VM-M3 vs VM-M3) is “did attenuate muscle atrophy”. In the assay with VM-M3 cells (week 3, across groups), the “cardiac tissue weight set to baseline bodyweight” value is listed as “unaltered”. Besides, the “whole animal tumor burden (in vivo bioluminescence)” value in the assay on VM-M3 cells (weekly imaging, KDE+VM-M3 vs VM-M3) is given as “non-significant reductions”. Moreover, in the assay on VM-M3 cells (setting [2]), the blood glucose entry is “reductions in blood glucose” and the circulating ketones entry is recorded as “sustained elevations”. In addition, in assay [1] (4 mL/kg KDE gavage), the blood glucose entry was “significant and rapid reductions”; the blood ketones entry is recorded as “elevations in blood ketones”. For the same compound, in assay [1] (5 mL/kg KDE gavage), the blood glucose result is “significant and rapid reductions”; the blood ketones entry is recorded as “elevations in blood ketones”.
